Legend:
[1] = xn = mol fraction of the nth substance listed; conditions: 298.15 K, 100 kPa, Liquid, Sing-around technique in a fixed-path interferometer
[2] = wn = mass fraction of the nth substance listed; conditions: 298.15 K, 100 kPa, Liquid; for viscosity: Capillary tube (Ostwald / Ubbelohde) method; for mass density: Vibrating tube method
[3] = refractive index (other wavelength) (dimensionless); wn = mass fraction of the nth substance listed; conditions: 298.15 K, 100 kPa, Liquid, Wavelength=589.3 nm, Digital Refractometer Mettler Toledo

CCCC[P+](CCCC)(CCCC)CCCC.F[B-](F)(F)F [tetrabutylphosphonium tetrafluoroborate] + O
Conditions | mass density, [2] [kg/m3] | refractive index, [3] | speed of sound, [1] [m/s] | viscosity, [2] [mPa·s]
w1 = 0.001 | 997.16 | 1.3326 | – | 0.901
w1 = 0.003 | 998.67 | 1.3333 | – | 0.909
w1 = 0.005 | 1000.05 | 1.3341 | – | 0.914
x1 = 0.001 | – | – | 1498.9 | –
x1 = 0.003 | – | – | 1502.6 | –
x1 = 0.005 | – | – | 1507.5 | –

— the NIST ThermoML archive (doi:10.1016/j.fluid.2013.03.030)
